Reference: patent publication US8796470B2 (AbbVie Inc., priority 2010, dated 2014)
pIC50: −log10 of the molar value.

What follows are compounds tested against T1, human Cav2.2 (Homo sapiens, UniProt Q00975) (assay: Assessment of calcium channel activity using FLIPR (Ca2+ influx in IMR32 cells)). Settings: IMR32 cells endogenously expressing human Cav2.2, Calcium 4 dye, 60 minute pre-incubation, 2 μM nifedipine, depolarized with 80 mM KCl, 5 mM CaCl2.
T1 construct: IMR32 cells endogenously expressing human Cav2.2; endogenous in cells; host or cells: IMR32 cells (human neuroblastoma)
T1 sequence (Q00975 whole entry): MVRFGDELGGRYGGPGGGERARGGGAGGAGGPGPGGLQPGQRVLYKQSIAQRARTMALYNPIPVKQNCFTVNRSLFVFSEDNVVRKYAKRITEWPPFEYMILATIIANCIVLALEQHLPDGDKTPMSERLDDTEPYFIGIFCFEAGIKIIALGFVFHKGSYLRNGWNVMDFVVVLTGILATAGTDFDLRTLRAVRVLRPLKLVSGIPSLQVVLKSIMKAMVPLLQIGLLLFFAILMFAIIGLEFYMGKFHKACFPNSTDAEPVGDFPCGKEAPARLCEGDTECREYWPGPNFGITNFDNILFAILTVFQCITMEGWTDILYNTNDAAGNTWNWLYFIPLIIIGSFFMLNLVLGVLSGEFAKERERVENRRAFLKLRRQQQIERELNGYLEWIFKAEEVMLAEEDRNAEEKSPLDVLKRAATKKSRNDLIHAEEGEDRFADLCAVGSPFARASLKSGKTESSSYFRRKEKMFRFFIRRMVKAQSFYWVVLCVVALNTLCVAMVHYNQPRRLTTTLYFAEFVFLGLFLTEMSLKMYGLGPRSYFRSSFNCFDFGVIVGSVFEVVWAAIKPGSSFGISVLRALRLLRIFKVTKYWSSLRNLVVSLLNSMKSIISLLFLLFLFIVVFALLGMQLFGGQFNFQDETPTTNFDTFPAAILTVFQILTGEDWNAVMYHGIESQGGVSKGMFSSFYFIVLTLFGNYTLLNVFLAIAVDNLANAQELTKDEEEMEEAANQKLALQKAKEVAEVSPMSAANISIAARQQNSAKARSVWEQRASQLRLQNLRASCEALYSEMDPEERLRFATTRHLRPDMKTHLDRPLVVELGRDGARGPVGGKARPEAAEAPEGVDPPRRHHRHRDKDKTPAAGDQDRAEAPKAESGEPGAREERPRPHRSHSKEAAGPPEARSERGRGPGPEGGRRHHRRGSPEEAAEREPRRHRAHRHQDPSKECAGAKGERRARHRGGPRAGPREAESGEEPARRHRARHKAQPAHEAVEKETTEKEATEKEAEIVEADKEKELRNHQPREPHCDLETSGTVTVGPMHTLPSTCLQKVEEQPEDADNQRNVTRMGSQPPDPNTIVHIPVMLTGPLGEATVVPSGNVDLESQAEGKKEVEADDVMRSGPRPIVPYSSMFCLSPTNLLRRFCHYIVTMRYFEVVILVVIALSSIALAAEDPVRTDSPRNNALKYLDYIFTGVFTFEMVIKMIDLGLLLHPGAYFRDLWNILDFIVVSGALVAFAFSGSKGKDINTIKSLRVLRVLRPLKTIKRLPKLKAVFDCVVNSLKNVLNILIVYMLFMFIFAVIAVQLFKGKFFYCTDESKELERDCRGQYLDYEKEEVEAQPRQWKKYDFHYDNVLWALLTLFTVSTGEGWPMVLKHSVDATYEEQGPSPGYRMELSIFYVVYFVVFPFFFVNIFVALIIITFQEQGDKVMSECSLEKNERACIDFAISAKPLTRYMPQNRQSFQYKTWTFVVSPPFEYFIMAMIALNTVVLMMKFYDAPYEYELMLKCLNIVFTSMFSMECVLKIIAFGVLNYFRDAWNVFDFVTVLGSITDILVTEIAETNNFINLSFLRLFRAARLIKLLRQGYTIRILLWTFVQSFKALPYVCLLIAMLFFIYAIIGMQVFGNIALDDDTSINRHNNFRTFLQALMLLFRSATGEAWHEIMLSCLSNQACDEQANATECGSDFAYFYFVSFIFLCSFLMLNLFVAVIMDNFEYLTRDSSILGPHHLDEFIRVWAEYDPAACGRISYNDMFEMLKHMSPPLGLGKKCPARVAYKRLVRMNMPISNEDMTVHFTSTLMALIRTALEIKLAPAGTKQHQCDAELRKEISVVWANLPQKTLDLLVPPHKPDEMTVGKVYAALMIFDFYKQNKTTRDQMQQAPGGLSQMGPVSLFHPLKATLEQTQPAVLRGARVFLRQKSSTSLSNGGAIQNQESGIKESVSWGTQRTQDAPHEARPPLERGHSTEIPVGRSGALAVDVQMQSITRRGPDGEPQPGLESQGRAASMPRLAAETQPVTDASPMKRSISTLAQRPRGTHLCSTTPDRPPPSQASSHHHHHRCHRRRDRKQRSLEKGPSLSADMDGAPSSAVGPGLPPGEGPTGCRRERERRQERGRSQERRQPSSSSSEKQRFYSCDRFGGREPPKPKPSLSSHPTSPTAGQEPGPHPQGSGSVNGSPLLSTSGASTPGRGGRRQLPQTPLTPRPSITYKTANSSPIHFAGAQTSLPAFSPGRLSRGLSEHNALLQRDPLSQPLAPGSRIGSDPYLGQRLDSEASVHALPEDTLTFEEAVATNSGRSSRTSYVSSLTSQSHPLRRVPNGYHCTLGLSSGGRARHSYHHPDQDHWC
T1 sequence (P54289 25-956 partner limits assumed): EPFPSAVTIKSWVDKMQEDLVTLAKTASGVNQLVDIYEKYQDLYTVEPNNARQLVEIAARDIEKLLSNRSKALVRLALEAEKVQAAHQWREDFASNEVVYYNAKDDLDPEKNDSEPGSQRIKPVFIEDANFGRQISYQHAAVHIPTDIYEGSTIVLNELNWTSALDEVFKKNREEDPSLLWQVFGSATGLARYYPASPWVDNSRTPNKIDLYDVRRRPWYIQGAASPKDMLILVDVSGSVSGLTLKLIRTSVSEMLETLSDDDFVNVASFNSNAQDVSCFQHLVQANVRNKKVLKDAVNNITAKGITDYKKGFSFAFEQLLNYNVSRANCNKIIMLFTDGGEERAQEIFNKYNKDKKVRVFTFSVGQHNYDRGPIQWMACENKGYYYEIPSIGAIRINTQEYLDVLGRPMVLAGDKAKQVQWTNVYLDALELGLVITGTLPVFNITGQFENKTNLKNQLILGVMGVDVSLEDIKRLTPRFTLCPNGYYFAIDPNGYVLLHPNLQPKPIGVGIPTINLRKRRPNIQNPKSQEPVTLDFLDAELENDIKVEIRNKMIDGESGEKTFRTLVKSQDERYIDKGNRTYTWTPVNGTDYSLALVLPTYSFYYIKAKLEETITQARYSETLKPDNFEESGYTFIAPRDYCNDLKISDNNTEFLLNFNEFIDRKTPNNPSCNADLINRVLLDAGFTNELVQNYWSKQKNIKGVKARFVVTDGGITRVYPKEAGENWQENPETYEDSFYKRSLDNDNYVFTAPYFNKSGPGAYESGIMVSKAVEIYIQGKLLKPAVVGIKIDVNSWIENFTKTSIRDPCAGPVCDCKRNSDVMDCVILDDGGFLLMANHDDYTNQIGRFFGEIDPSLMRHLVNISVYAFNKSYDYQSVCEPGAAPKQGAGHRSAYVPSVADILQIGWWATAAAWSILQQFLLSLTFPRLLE
T1 sequence (P54289 957-1103 partner limits assumed): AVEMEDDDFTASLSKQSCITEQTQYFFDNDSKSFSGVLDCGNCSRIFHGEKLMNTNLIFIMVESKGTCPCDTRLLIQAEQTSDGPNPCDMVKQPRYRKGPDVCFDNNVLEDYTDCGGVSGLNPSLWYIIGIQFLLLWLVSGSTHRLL
T1 sequence (P54284 whole entry partner): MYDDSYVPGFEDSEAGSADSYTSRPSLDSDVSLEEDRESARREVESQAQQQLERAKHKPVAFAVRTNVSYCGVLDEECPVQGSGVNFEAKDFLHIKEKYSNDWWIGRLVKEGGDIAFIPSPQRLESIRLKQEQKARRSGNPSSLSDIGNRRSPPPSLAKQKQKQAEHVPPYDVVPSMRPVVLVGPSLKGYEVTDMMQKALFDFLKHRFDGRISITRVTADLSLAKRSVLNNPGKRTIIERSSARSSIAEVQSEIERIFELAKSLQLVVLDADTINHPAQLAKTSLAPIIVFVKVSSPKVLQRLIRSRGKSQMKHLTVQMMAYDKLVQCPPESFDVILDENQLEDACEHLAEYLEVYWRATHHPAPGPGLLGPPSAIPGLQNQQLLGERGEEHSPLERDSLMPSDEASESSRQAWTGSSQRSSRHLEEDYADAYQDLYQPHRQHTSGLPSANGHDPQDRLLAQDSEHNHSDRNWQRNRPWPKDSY
Format: cell-based
Method: (i) In Vitro Methods—Assessment of Calcium Channel Activity Using FLIPR:
IMR32 cells endogenously expressing human Cav2.2 were assayed for Ca^2+ influx using a no-wash calcium indicator dye (Calcium 4 dye: Molecular Probes) and FLIPR technology (Lubin, M. L.; Reitz, T. L.; Todd, M. J.; Flores, C. M.; Qin, N.; Xin, H. Assay and Drug Development Technologies 2006, 4(6), 689-694.). The IMR32 cells were maintained in MEM media containing 10% (v/v) FBS, 1% (v/v) antibiotic/antimitotic, 1% (v/v) sodium pyruvate and 1% (v/v) MEM NEAA. Following dissociation in 0.05% (v/v) trypsin/EDTA, cells were seeded into black 1×96-well plates (Corning Cellbind) at a density of 1−1.2×10^5 cells/well and incubated in the maintenance media above for 48 hours at 37° C. Immediately prior to performing the assay the media was removed and cells were loaded for 1.5 hours with 1×Calcium 4 dye prepared in HBSS (137 mM NaCl, 5.4 mM KCl, 0.25 mM Na2HPO4, 0.44 mM KH2PO4, 1.3 mM CaCl2, 1 mM MgSO4, 4.2 mM NaHCO3) containing HEPES pH 7.4 at room temperature. After dye loading and a subsequent 60 minute pre-incubation with compounds (full log dilutions from 10 μM to 0.1 nM) in the presence of 1.3 mM CaCl2 and 2 μM nifedipine to block endogenous L-type channels, the external Ca^2+ concentration was increased to 5 mM CaCl2 and the cells concomitantly depolarized with 80 mM KCl to assay channel activity. To determine the IC50 values, the percent inhibition of the compound at each concentration was determined relative to the activity in the absence of inhibitor, and data was fitted using non-linear regression sigmoidal dose response curve analysis with GraphPad Prism®.
`C[C@@]1(N)CC[C@@H]2CN(c3cccc(C(F)(F)F)n3)C[C@@H]21` [Example 26, (3aR,4R,6aS)-4-methyl-2-[6-(trifluoromethyl)pyridin-2-yl]octahydrocyclopenta[c]pyrrol-4-amine] showed a pIC50 of 5.44. `CCO[C@H]1CC[C@@H]2CN(c3cccc(C(F)(F)F)n3)C[C@@H]21` [Example 41, (3aR,4S,6aS)-4-ethoxy-2-[6-(trifluoromethyl)pyridin-2-yl]octahydrocyclopenta[c]pyrrole] was tested, and the pIC50 was 5.48. `CC(=O)N[C@@]1(C)CC[C@@H]2CN(c3cccc(C(F)(F)F)n3)C[C@@H]21` [Example 17, N-{(3aR,4S,6aS)-4-methyl-2-[6-(trifluoromethyl)pyridin-2-yl]octahydrocyclopenta[c]pyrrol-4-yl}acetamide] gave a pIC50 of 5.49. With `Fc1cccc(CO[C@H]2CC[C@@H]3CN(c4cccc(C(F)(F)F)n4)C[C@@H]32)c1` [Example 45, (3aR,4S,6aS)-4-[(3-fluorobenzyl)oxy]-2-[6-(trifluoromethyl)pyridin-2-yl]octahydrocyclopenta[c]pyrrole] the pIC50 was 5.09. With `FC(F)(F)c1cccc(N2C[C@H]3CC[C@H](n4cccn4)[C@H]3C2)n1` [Example 51, (3aR,4S,6aS)-4-(1H-pyrazol-1-yl)-2-[6-(trifluoromethyl)pyridin-2-yl]octahydrocyclopenta[c]pyrrole] the pIC50 was 5.86. Compound `C[C@]1(NC(=O)c2ccccc2)CC[C@@H]2CN(c3cccc(C(F)(F)F)n3)C[C@@H]21` [Example 15, N-{(3aR,4S,6aS)-4-methyl-2-[6-(trifluoromethyl)pyridin-2-yl]octahydrocyclopenta[c]pyrrol-4-yl}benzamide] has a pIC50 of 5.60. In the case of `C[C@]1(NC(=O)[C@@H]2C[C@@H](F)CN2)CC[C@@H]2CN(c3cccc(C(F)(F)F)n3)C[C@@H]21` [Example 70, (4R)-4-fluoro-N-{(3aR,4S,6aS)-4-methyl-2-[6-(trifluoromethyl)pyridin-2-yl]octahydrocyclopenta[c]pyrrol-4-yl}-L-prolinamide], the pIC50 was 5.51. For `O[C@]1(c2ccccc2)CC[C@@H]2CN(Cc3ccccc3)C[C@@H]21` [Example 47, (3aR,4R,6aS)-2-benzyl-4-phenyloctahydrocyclopenta[c]pyrrol-4-ol], the pIC50 was 5.05. Work on `C[C@@]1(NC(=O)c2ccccc2)CC[C@@H]2CN(Cc3ccccc3)C[C@@H]21` [Example 2, N-[(3aR,4R,6aS)-2-benzyl-4-methyloctahydrocyclopenta[c]pyrrol-4-yl]benzamide] yielded a pIC50 of 4.94. Compound `FC(F)(F)c1cccc(N2C[C@H]3CC[C@H](n4ncc5ccccc54)[C@H]3C2)n1` [Example 65, 1-{(3aR,4S,6aS)-2-[6-(trifluoromethyl)pyridin-2-yl]octahydrocyclopenta[c]pyrrol-4-yl}-1H-indazole] has a pIC50 of 5.31. `Fc1cccc(O[C@H]2CC[C@@H]3CN(Cc4ccccc4)C[C@@H]32)c1` [Example 48, (3aR,4S,6aS)-2-benzyl-4-(3-fluorophenoxy)octahydrocyclopenta[c]pyrrole] was tested, and the pIC50 was 5.53. `FC(F)(F)c1cccc(N2C[C@H]3CC[C@H](OC[C@@H]4CCCN4)[C@H]3C2)n1` [Example 53, (3aR,4S,6aS)-4-[(2S)-pyrrolidin-2-ylmethoxy]-2-[6-(trifluoromethyl)pyridin-2-yl]octahydrocyclopenta[c]pyrrole] gave a pIC50 of 6.18. With `Cc1cn([C@H]2CC[C@@H]3CN(c4cccc(C(F)(F)F)n4)C[C@@H]32)cn1` [Example 67, (3aR,4S,6aS)-4-(4-methyl-1H-imidazol-1-yl)-2-[6-(trifluoromethyl)pyridin-2-yl]octahydrocyclopenta[c]pyrrole] the pIC50 was 5.36. `O[C@]1(c2ccccc2)CC[C@@H]2CN(c3cccc(C(F)(F)F)n3)C[C@@H]21` [Example 35, (3aR,4R,6aS)-4-phenyl-2-[6-(trifluoromethyl)pyridin-2-yl]octahydrocyclopenta[c]pyrrol-4-ol] gave a pIC50 of 5.54. Compound `FC(F)(F)c1cccc(N2C[C@H]3CC[C@H](n4cc(Cl)cn4)[C@H]3C2)n1` [Example 52, (3aR,4S,6aS)-4-(4-chloro-1H-pyrazol-1-yl)-2-[6-(trifluoromethyl)pyridin-2-yl]octahydrocyclopenta[c]pyrrole] has a pIC50 of 5.13. In the case of `Cc1nccn1[C@H]1CC[C@@H]2CN(c3cccc(C(F)(F)F)n3)C[C@@H]21` [Example 61, (3aR,4S,6aS)-4-(2-methyl-1H-imidazol-1-yl)-2-[6-(trifluoromethyl)pyridin-2-yl]octahydrocyclopenta[c]pyrrole], the pIC50 was 5.45. `FC(F)(F)c1cccc(N2C[C@H]3CC[C@H](n4cnc(-c5ccccc5)c4)[C@H]3C2)n1` [Example 58, (3aR,4S,6aS)-4-(4-phenyl-1H-imidazol-1-yl)-2-[6-(trifluoromethyl)pyridin-2-yl]octahydrocyclopenta[c]pyrrole] gave a pIC50 of 5.50. Compound `Cc1ccn([C@H]2CC[C@@H]3CN(c4cccc(C(F)(F)F)n4)C[C@@H]32)n1` [Example 66, (3aR,4S,6aS)-4-(3-methyl-1H-pyrazol-1-yl)-2-[6-(trifluoromethyl)pyridin-2-yl]octahydrocyclopenta[c]pyrrole] has a pIC50 of 5.24. Compound `C[C@]1(NC(=O)c2cccc(F)c2)CC[C@@H]2CN(Cc3ccccc3)C[C@@H]21` [Example 7, N-[(3aR,4S,6aS)-2-benzyl-4-methyloctahydrocyclopenta[c]pyrrol-4-yl]-3-fluorobenzamide] has a pIC50 of 5.29. Compound `CN[C@@H](CC(C)C)C(=O)N[C@@]1(C)CC[C@@H]2CN(c3cccc(C(F)(F)F)n3)C[C@@H]21` [Example 71, N^2-methyl-N-{(3aR,4S,6aS)-4-methyl-2-[6-(trifluoromethyl)pyridin-2-yl]octahydrocyclopenta[c]pyrrol-4-yl}-L-leucinamide] has a pIC50 of 6.11. For `O=C(Nc1cccc(F)c1)[C@H]1CC[C@@H]2CNC[C@@H]21` [Example 55, (3aS,4S,6aS)—N-(3-fluorophenyl)octahydrocyclopenta[c]pyrrole-4-carboxamide], the pIC50 was less than 4.52. For `Cc1cnn([C@H]2CC[C@@H]3CN(c4cccc(C(F)(F)F)n4)C[C@@H]32)c1` [Example 63, (3aR,4S,6aS)-4-(4-methyl-1H-pyrazol-1-yl)-2-[6-(trifluoromethyl)pyridin-2-yl]octahydrocyclopenta[c]pyrrole], the pIC50 was 5.56. `FC(F)(F)c1cccc(N2C[C@H]3CC[C@H](n4ccnc4)[C@H]3C2)n1` [Example 50, (3aR,4S,6aS)-4-(1H-imidazol-1-yl)-2-[6-(trifluoromethyl)pyridin-2-yl]octahydrocyclopenta[c]pyrrole] was tested, and the pIC50 was 5.37. `C[C@@]1(NCc2cccc(F)c2)CC[C@@H]2CN(c3cccc(C(F)(F)F)n3)C[C@@H]21` [Example 24, (3aR,4R,6aS)—N-(3-fluorobenzyl)-4-methyl-2-[6-(trifluoromethyl)pyridin-2-yl]octahydrocyclopenta[c]pyrrol-4-amine] gave a pIC50 of 6.48. With `C[C@]1(NC(=O)c2ccccc2)CC[C@@H]2CNC[C@@H]21` [Example 9, N-[(3aR,4S,6aS)-4-methyloctahydrocyclopenta[c]pyrrol-4-yl]benzamide] the pIC50 was less than 4.52. Compound `C[C@]1(NC(=O)c2cccc(F)c2)CC[C@@H]2CN(c3cccc(C(F)(F)F)n3)C[C@@H]21` [Example 19, 3-fluoro-N-{(3aR,4S,6aS)-4-methyl-2-[6-(trifluoromethyl)pyridin-2-yl]octahydrocyclopenta[c]pyrrol-4-yl}benzamide] has a pIC50 of 5.74. In the case of `FC(F)(F)c1cccc(N2C[C@H]3CC[C@H](n4cnc(-c5ccc(Cl)cc5)c4)[C@H]3C2)n1` [Example 57, (3aR,4S,6aS)-4-[4-(4-chlorophenyl)-1H-imidazol-1-yl]-2-[6-(trifluoromethyl)pyridin-2-yl]octahydrocyclopenta[c]pyrrole], the pIC50 was 5.24. `Fc1cccc(CCO[C@H]2CC[C@@H]3CN(c4cccc(C(F)(F)F)n4)C[C@@H]32)c1` [Example 46] gave a pIC50 of 5.08. With `CC(C)(C)O[C@H]1CC[C@@H]2CN(c3cccc(C(F)(F)F)n3)C[C@@H]21` [Example 43, (3aR,4S,6aS)-4-tert-butoxy-2-[6-(trifluoromethyl)pyridin-2-yl]octahydrocyclopenta[c]pyrrole] the pIC50 was 5.60. `CC(=O)N[C@@]1(C)CC[C@@H]2CN(Cc3ccccc3)C[C@@H]21` [Example 5, N-[(3aR,4S,6aS)-2-benzyl-4-methyloctahydrocyclopenta[c]pyrrol-4-yl]acetamide] gave a pIC50 of less than 4.52. For `O=C(Nc1cccc(F)c1)[C@H]1CC[C@@H]2CN(c3cccc(C(F)(F)F)n3)C[C@@H]21` [Example 56, (3aS,4S,6aS)—N-(3-fluorophenyl)-2-[6-(trifluoromethyl)pyridin-2-yl]octahydrocyclopenta[c]pyrrole-4-carboxamide], the pIC50 was 5.05. In the case of “5-methyl-1-{(3aR,4S,6aS)-2-[6-(trifluoromethyl)pyridin-2-yl]octahydrocyclopenta[c]pyrrol-4-yl}-1H-benzimidazole and 6-methyl-1-{(3aR,4S,6aS)-2-[6-(trifluoromethyl)pyridin-2-yl]octahydrocyclopenta[c]pyrrol-4-yl}-1H-benzimidazole [Example 59]”, the pIC50 was 5.55.
